≈ marks a conversion by molar mass, not a printed value. Where “and” joins values, the source holds several entries; their conditions need not be identical. Equal entries are not always repeated. Where two headings read alike, the source gives them in different places.
Key:
Format in all cases: cell-based
[1] = test system: Staphylococcus aureus; test: MIC, Staphylococcus aureus (MSSA, MRSA); details: for MIC: read-out: MIC
Text: (§1) Bacterial isolates were subjected to broth microdilution susceptibility testing, performed according to Clinical and Laboratory Standards Institute (CLSI) methods ([46]), using panels prepared in-house. Meropenem was purchased from Sandoz, and all other antibiotics were from Sigma-Aldrich. Xeruborbactam was synthesized at Qpex Biopharma, San Diego, CA. Avibactam was purchased from eNovation Chemicals LLC, Bridgewater, NJ, USA; zidebactam was from MedKoo Biosciences, Inc., Morrisville, NC, and nacubactam was from Advanced ChemBlocks, Hayward, CA. Durlobactam was synthesized at Acme Bioscience, Palo Alto, CA, USA.

[2] = test system: Streptococcus pneumoniae; test: MIC, Streptococcus pneumoniae; details: Streptococcus pneumoniae; for MIC: read-out: MIC
Text: as §1

[3] = test system: Klebsiella pneumoniae; test: microbe, parasite or virus in culture; details: for MIC90: read-out: MIC90
Summary of the method: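 MICs by CLSI broth microdilution in in-house panels. Strains tested were engineered strains carrying porin and efflux mutation combinations, KPC-producing clinical isolates and derivatives cured of KPC plasmids, and KPC-producing clinical isolates enriched for porin mutations.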

[4] = Staphylococcus aureus, MSSA, n = 12
[5] = Klebsiella pneumoniae, 575 isolates
[6] = Klebsiella pneumoniae, K. pneumoniae CRE, 418 isolates
[7] = Klebsiella pneumoniae, K. pneumoniae CRE, KPC, 163 isolates
[8] = Klebsiella pneumoniae, K. pneumoniae CRE, OXA-48-like, 89 isolates
[9] = Klebsiella pneumoniae, K. pneumoniae CRE, metallo-beta-lactamase, 126 isolates
[10] = Klebsiella pneumoniae, K. pneumoniae CRE, non-carbapenemase producing, 40 isolates
[11] = Klebsiella pneumoniae, K. pneumoniae ESBL phenotype, 157 isolates
[12] = Klebsiella pneumoniae, KPC-producing clinical strains with functional OmpK36, alone
[13] = Klebsiella pneumoniae, KPC-producing clinical strains with nonfunctional OmpK36, alone
[14] = Klebsiella pneumoniae, KPC-producing clinical strains, all strains (n = 141), alone

## O=C(O)c1c(F)ccc2c1OB(O)[C@@H]1C[C@H]21 [Xeruborbactam]
[1]; MSSA, n = 12
  MIC range: 4 to 8 µg/mL
[1]; Staphylococcus aureus, ATCC 29213 / MSSA, ATCC 29213, MSSA
  MIC: 4 µg/mL (≈ 18 µM)
[1]; Staphylococcus aureus, MRSA, all the MRSA strains, n = 13
  MIC: > 32 µg/mL
[1]; Staphylococcus aureus, MRSA, sa001, MRSA
  MIC: > 32 µg/mL
[1]; Staphylococcus aureus, MRSA, sa010, MRSA
  MIC: > 32 µg/mL
[1]; Staphylococcus aureus, MRSA, sa013, MRSA
  MIC: > 32 µg/mL
[1]; Staphylococcus aureus, MRSA, sa014, MRSA
  MIC: > 32 µg/mL
[1]; Staphylococcus aureus, MRSA, sa148, MRSA
  MIC: > 32 µg/mL
[1]; Staphylococcus aureus, MRSA, sa150, MRSA
  MIC: > 32 µg/mL
[1]; Staphylococcus aureus, MRSA, sa151, MRSA
  MIC: > 32 µg/mL
[1]; Staphylococcus aureus, MRSA, sa152, MRSA
  MIC: > 32 µg/mL
[1]; Staphylococcus aureus, MRSA, sa153, MRSA
  MIC: > 32 µg/mL
[1]; Staphylococcus aureus, MRSA, sa278, MRSA
  MIC: > 32 µg/mL
[1]; Staphylococcus aureus, MRSA, sa279, MRSA
  MIC: > 32 µg/mL
[1]; Staphylococcus aureus, MRSA, sa280, MRSA
  MIC: > 32 µg/mL
[1]; Staphylococcus aureus, MRSA, sa281, MRSA
  MIC: > 32 µg/mL
[1]; Staphylococcus aureus, MSSA, sa002, MSSA
  MIC: 8 µg/mL (≈ 36 µM)
[1]; Staphylococcus aureus, MSSA, sa003, MSSA
  MIC: 8 µg/mL (≈ 36 µM)
[1]; Staphylococcus aureus, MSSA, sa004, MSSA
  MIC: 8 µg/mL (≈ 36 µM)
[1]; Staphylococcus aureus, MSSA, sa005, MSSA
  MIC: 8 µg/mL (≈ 36 µM)
[1]; Staphylococcus aureus, MSSA, sa006, MSSA
  MIC: 8 µg/mL (≈ 36 µM)
[1]; Staphylococcus aureus, MSSA, sa007, MSSA
  MIC: 8 µg/mL (≈ 36 µM)
[1]; Staphylococcus aureus, MSSA, sa008, MSSA
  MIC: 8 µg/mL (≈ 36 µM)
[1]; Staphylococcus aureus, MSSA, sa009, MSSA
  MIC: 8 µg/mL (≈ 36 µM)
[1]; Staphylococcus aureus, MSSA, sa011, MSSA
  MIC: 8 µg/mL (≈ 36 µM)
[1]; Staphylococcus aureus, MSSA, sa012, MSSA
  MIC: 8 µg/mL (≈ 36 µM)
[1]; Staphylococcus aureus, MSSA, sa015, MSSA
  MIC: 8 µg/mL (≈ 36 µM)
[1]; [4]
  MIC50: 8 µg/mL (≈ 36 µM)
  MIC90: 8 µg/mL (≈ 36 µM)
[2]; sp001
  MIC: 8 µg/mL (≈ 36 µM)
[2]; sp002
  MIC: 4 µg/mL (≈ 18 µM)
[2]; sp003
  MIC: 4 µg/mL (≈ 18 µM)
[2]; sp004
  MIC: > 32 µg/mL
[2]; sp005
  MIC: 16 µg/mL (≈ 72.1 µM)
[2]; sp006
  MIC: 32 µg/mL (≈ 144 µM)
[2]; sp007
  MIC: 16 µg/mL (≈ 72.1 µM)
[2]; sp008
  MIC: 32 µg/mL (≈ 144 µM)
[2]; sp009
  MIC: 32 µg/mL (≈ 144 µM)
[2]; sp117
  MIC: > 32 µg/mL
[2]; sp118
  MIC: > 32 µg/mL
[2]; sp119
  MIC: 32 µg/mL (≈ 144 µM)
[2]; sp120
  MIC: 32 µg/mL (≈ 144 µM)
[2]; sp121
  MIC: 32 µg/mL (≈ 144 µM)
[2]; sp122
  MIC: > 32 µg/mL
[2]; sp123
  MIC: > 32 µg/mL
[2]; sp125
  MIC: 32 µg/mL (≈ 144 µM)
[2]; sp126
  MIC: > 32 µg/mL
[2]; S. pneumoniae strains, n = 18
  MIC50: 32 µg/mL (≈ 144 µM)
  MIC90: > 32 µg/mL
[3]; 228 isolates with the full-length OmpK36
  isolates with MIC values in an 8- to 16-μg/mL range: ~ 95%
[3]; K. pneumoniae ESBL phenotype, 157 isolates
  MIC range: 4 to 32 µg/mL
[3]; K. pneumoniae clinical isolates, OmpK36 full length (n=228)
  percentage of strains with xeruborbactam MIC values ≥32 µg/ml: 5.3%
[3]; Klebsiella pneumoniae KPM1001 (ATCC 49816)
  MIC: 16 µg/mL
[3]; Klebsiella pneumoniae KPM1001 (ATCC 49816), read-out: MIC
  MIC: 72 µM
[3]; [5]
  MIC50: 16 µg/mL
  MIC90: 32 µg/mL
[3]; Klebsiella pneumoniae, ATCC49816, Klebsiella pneumoniae KPM1001 (ATCC 49816), read-out: MIC
  MIC: 72 µM and 16 µg/mL
[3]; Klebsiella pneumoniae, BAA2814, KPC-3-producing KP1074 (BAA-2814), xeruborbactam none, read-out: MIC
  MIC: 16 to 32 µg/mL
[3]; [6]
  MIC50: 16 µg/mL
  MIC90: 32 µg/mL
[3]; [7]
  MIC50: 16 µg/mL
  MIC90: 32 µg/mL
[3]; [8]
  MIC50: 16 µg/mL
  MIC90: 64 µg/mL
[3]; [9]
  MIC50: 16 µg/mL
  MIC90: 32 µg/mL
[3]; [10]
  MIC50: 16 µg/mL
  MIC90: 32 µg/mL
[3]; [11]
  MIC50: 16 µg/mL
  MIC90: 16 µg/mL
[3]; [12]
  MIC50: 16 µg/mL
  MIC90: > 16 µg/mL
[3]; [13]
  MIC50: > 16 µg/mL
  MIC90: > 16 µg/mL
[3]; [14]
  MIC50: > 16 µg/mL
  MIC90: > 16 µg/mL
[3]; Klebsiella pneumoniae, KPM1026a (no beta-lactamase), xeruborbactam 0 µg/ml, read-out: MIC
  MIC: 16 µg/mL
[3]; Klebsiella pneumoniae, KPM1026a, alone, read-out: MIC
  MIC: 16 µg/mL
[3]; Klebsiella pneumoniae, KPM1026a, parent, read-out: MIC
  MIC: 16 µg/mL
[3]; Klebsiella pneumoniae, KPM1211 (KP1074 after loss of pKpQIL), read-out: MIC
  MIC: 16 to 32 µg/mL
[3]; Klebsiella pneumoniae, KPM1271 (KPC-3; wild type), alone, read-out: MIC
  MIC: 16 µg/mL
[3]; Klebsiella pneumoniae, KPM1271 (KPM1026a/KPC-3), alone, read-out: MIC
  MIC: 16 µg/mL
[3]; Klebsiella pneumoniae, KPM1272 (KPC-3; ramR_fs), alone, read-out: MIC
  MIC: 16 µg/mL
[3]; Klebsiella pneumoniae, KPM1273 (KPC-3; ramR_fs ompK36_1171), alone, read-out: MIC
  MIC: 64 µg/mL
[3]; Klebsiella pneumoniae, KPM1281 (KPM1026a/NDM-1), alone, read-out: MIC
  MIC: 16 µg/mL
[3]; Klebsiella pneumoniae, KPM2067 (KPC-3; ompK36_fs), alone, read-out: MIC
  MIC: 16 µg/mL
[3]; Klebsiella pneumoniae, KPM2601 (KPC-3; ΔompK35), alone
  MIC: 16 µg/mL
[3]; Klebsiella pneumoniae, KPM2631 (KPC-3; ompK36_fs ΔompK35), alone
  MIC: 32 µg/mL
[3]; Klebsiella pneumoniae, KPM3532 (TolQ::M189K), alone
  MIC: 32 µg/mL

Source: paper PMC9578396, “Intrinsic Antibacterial Activity of Xeruborbactam In Vitro: Assessing Spectrum and Mode of Action” (Antimicrobial Agents and Chemotherapy, 2022)
